Experimental data reported in patent US7300917B2, “Remedy for chronic disease” (Ono Pharmaceuticals Co., Ltd., priority 2002, dated 2007).
“Also recorded” adds a separate entry of the source.

Experiments:
Type in all cases: cell-based
human EDG-2 = molecular target: T1, human EDG-2 (Homo sapiens, UniProt Q92633); test: Evaluation of EDG-2 antagonistic activity by monitoring the change of intracellular calcium ion concentration; conditions: CHO cells overexpressing human EDG-2; inhibition of intracellular calcium increase by LPA (100 nM); Fura2
T1 construct: expressed in transfected cells; host or cells: Chinese hamster ovary (CHO) cells
T1 sequence (Q92633 whole entry): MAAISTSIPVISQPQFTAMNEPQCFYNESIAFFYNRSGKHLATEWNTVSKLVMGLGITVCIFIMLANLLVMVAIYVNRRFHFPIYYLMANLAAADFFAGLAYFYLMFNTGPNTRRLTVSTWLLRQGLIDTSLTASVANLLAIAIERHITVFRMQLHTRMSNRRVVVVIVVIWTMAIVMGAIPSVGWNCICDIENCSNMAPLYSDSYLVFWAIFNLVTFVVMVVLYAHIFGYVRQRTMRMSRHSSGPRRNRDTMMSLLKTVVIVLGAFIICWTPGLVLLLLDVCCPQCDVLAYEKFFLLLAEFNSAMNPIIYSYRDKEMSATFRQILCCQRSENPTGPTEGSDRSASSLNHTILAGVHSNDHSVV
Procedure: Chinese hamster ovary (CHO) cells which overexpressed human EDG-2 gene were cultured in Ham's F12 medium (GIBCO BRL) containing 10% FBS (fetal bovine serum), penicillin/streptomycin and blasticidin (5 μg/ml). Thus cultured cells were incubated in Fura2 (5 μM)-AM solution [Ham's F12 medium containing FBS (10%), HEPES buffer (20 mM, pH 7.4) and probenecid (2.5 mM)]. Next, it was washed with Hanks solution containing HEPES buffer (20 mM, pH 7.4) and probenecid (2.5 mM) once, and immersed into the Hanks solution. Plates were set in fluorescent drug screening system and intracellular calcium ion concentration was measured for 30 seconds with no stimulation. Five minutes after adding thereto a compound to be tested (final concentration: 1 nM to 10 μM, in dimethylsulfoxide (DMSO) solution), the increase of intracellular calcium ion concentrations before and after the addition of LPA (excitation wave length: […]; fluorescent wave length: 500 nm) were measured every 3 seconds. 1-oleoyl (18:1)-LPA (Sigma) or 1-linolenoyl (18:3)-LPA was used as LPA. 1-linolenoyl (18:3)-LPA was synthesized and purified by either of the following two methods. […]

[1] = tested on: human prostate stroma cells; test: Inhibition by an EDG-2 antagonist of LPA-dependent proliferation of human prostate stroma cells (BrdU uptake); conditions: LPA 1 μM; test compound 1 nM to 10 μM; 24 hours; FIG. 2-4
Procedure: To an MEM-α medium containing 10% FBS (fetal bovine serum), gentamicin (50 μg/ml), amphortercin B (50 ng/mL) and human bFGF and human insulin)(GIBCO Inc.) was added PrSC 5685 in a concentration of 1×10^4 cells/well in a 96-well plate and the mixture was cultured for 24 hours. Afterwards, it was washed with Hanks solution twice and the medium was exchanged with a serum-free medium (MEM-α containing gentamicin (50 μg/ml) and amphotercin B (50 ng/ml)) and cultured for another 24 hours. Thereto was added LPA (final concentration: 1 nM-10 μM) and at the same time was added BrdU and the mixture was cultured for 24 hours. The same amount of physiological saline was added in place of LPA as a control.
Uptaking of BrdU was measured by using cell proliferation ELISA kit (Amersham Inc.). Specifically, the cells were treated with BrdU and the cultured serum was discarded and to each well was added a cell anchorage/DNA denaturation solution (150 μl) and the mixture was allowed to stand for 30 minutes. The cell anchorage/DNA denaturation solution was removed and to the mixture was added Blocking buffer (150 μl) and the mixture was allowed to stand for another 30 minutes. Next the Blocking buffer was removed and thereto was added anti-BrdU antibody solution (100 μL) labeled with peroxidase and the mixture was allowed to stand for 30 minutes. Next the antibody solution was removed and the mixture was washed with Wash buffer (PBS(−); 150 μl) three times, moisture was removed enough by tapping and thereto was added a solution of a reaction substance (3,3′,5,5′,-tetramethylbenzidine, TMB 15% solution in DMSO; 100 μL). Thereto was added 2N solution of sulfuric acid (25 μL) and the absorbance was measured at 450 nm by microplate reader SPECTRAMAXPRO.
Human-prostate stroma cells were cultured by the method described in example 2, just before adding LPA the test compound (final concentration: 1 nM to 10 μM) were added. […] After adding LPA was added BrdU and it was cultured for another 24 hours and the uptaking activity of BrdU was measured.

[2] = tested on: human airway smooth muscle cells; test: Inhibition by an EDG-2 antagonist of LPA-dependent proliferation of human airway smooth muscle cells (BrdU uptake); conditions: LPA 3 μM; test compound 1 nM-10 μM; 6 hours; FIG. 6-7
Procedure: BSMC was sowed to an MEM-α medium (GIBCO) containing 10% FBS (fetal bovine serum), gentamicin (50 μg/ml), amfortercin B (50 ng/ml), human bFGF and human insulin in a concentration of 1×10^4 cells/well in a 96-well plate and the mixture was cultured for 24 hours. Afterwards, it was washed with Hanks solution twice, and the medium was exchanged with a serum-free medium (an MEM-α containing gentamicin (50 μg/ml) and amphortecin B (50 ng/ml)) and the mixture was cultured for another 24 hours. Thereto was added LPA (final concentration: 3 nM-10 μM) and simultaneously was added BrdU and the mixture was cultured for another 6 hours. The same amount of physiological saline was added as a control in place of LPA.
Uptaking of BrdU was measured by using cell proliferation ELISA kit (Amersham Inc.). Specifically, the cells were treated with BrdU and the cultured serum was discarded and to each well was added a cell anchorage/DNA denaturation solution (150 μl) and the mixture was allowed to stand for 30 minutes. […] Thereto was added 2N solution of sulfuric acid (25 μL) and the absorbance was measured at 450 nm by microplate reader SPECTRAMAXPRO.
By the method shown in example 4 BSMC was cultured and the test compound (final concentration: 1 nM-10 μM) was added just before adding LPA. […] After adding LPA, BrdU was added and it was cultured for 6 hours and the uptaking activity of BrdU was measured.

[3] = tested on: mouse precursor fat cells (3T3-L1); test: Inhibition by an EDG-2 antagonist of LPA-dependent proliferation of mouse precursor fat cells (BrdU uptake); conditions: compound 0.001 μM-10 μM, FIG. 9-10
Procedure: Proliferating activity of mouse precursor fat cells by LPA was measured by BrdU uptaking activity of the cells (3T3-L1). In a medium containing serum (DMEM/10% FBS (50 μg/mL); gentamicin (50 ng/mL); amphotericin B) the cells were suspended and the suspension was sowed in a concentration of 1×10^4 cells/well in a 96-well plate and it was cultured for 24 hours, and then it was washed with Hanks solution (150 μL) twice and the medium was exchanged with serum-free medium (DMEM (50 μg/mL); gentamicin (50 ng/mL); amphotericin B) and it was cultured for another 24 hours. Thereto was added the compound (b) or compound (c) in a final concentration of 0.001 μM-10 μM and 20 hours later thereto was added BrdU and 24 hours later, the uptaking of BrdU was measured.

[4] = tested on: human synovial cells (HFLS); test: Inhibition by an EDG-2 antagonist of LPA-dependent proliferation of human synovial cells (BrdU uptake); conditions: LPA 3 μM, compound 0.001 μM-10 μM, FIG. 11-12
Procedure: Proliferating activity of human synovial cells by LPA was measured by BrdU uptaking activity of the cells (HFLS CELL APPLICATION Inc.). In a medium containing serum (Synoviocyte Basal Medium/Synoviocyte Growth Supplement) the cells were suspended and they were sowed in a collagen-coated 96-well plate in a concentration of 1×10^4 cells/well and 24 hours after it was washed with Hanks solution (150 μl) twice and the medium was exchanged with serum-free medium (Synoviocyte Basal Medium) in a volume of 100 μL/well and it was cultured for 24 hours. The compound (b) or compound (c) (each in a concentration of 0.001 μM-10 μM) was simultaneously added with LPA (in a concentration of 3 μM) and 18 hours after, thereto was added BrdU and the uptaking of BrdU was measured.

| Compound | IC50 (human EDG-2) | inhibition of proliferation of human prostate stroma cells by LPA stimulation (BrdU uptaking activity) [1] | inhibition of proliferation of human airway smooth muscle cells by LPA stimulation (BrdU uptaking activity) [2] | inhibition of proliferation of mouse precursor fat cells by LPA stimulation (BrdU uptaking activity) [3] | inhibition of proliferation of human synovial cells by stimulation of LPA (BrdU uptaking activity) [4] |
| --- | --- | --- | --- | --- | --- |
| COC(=O)CCSCc1ccc(-c2onc(C)c2NC(=O)OC(C)c2ccccc2Cl)cc1 (stereo not drawn) [compound (b), methyl 3-({4-[4-({[1-(2-chlorophenyl)ethoxy]carbonyl}amino)-3-methyl-5-isoxazolyl]benzyl}sulfanyl)propanoate, reference compound] | 1.5 µM | suppresses the proliferation effect of normal human prostate stroma cells by LPA, depending on the concentration | inhibits the proliferation effect of normal human airway smooth muscle cells induced by LPA depending on the concentration | inhibits the proliferation effect of normal human precursor fat cells induced by LPA depending on the concentration; also recorded: inhibited the proliferation of mouse precursor fat cells by LPA stimulation depending on the concentration | inhibits the proliferation effect of normal human precursor fat cells depending on the concentration; also recorded: inhibited the proliferation of human synovial cells by stimulation of LPA |
| COc1cc(C(=O)N(CCCc2ccccc2)Cc2ccc(-c3ccccc3CC(=O)O)cc2)cc(OC)c1OC [compound (c), (4′-{[(3-phenylpropyl)(3,4,5-trimethoxybenzoyl)amino]methyl}-2-biphenylyl)acetic acid] | 0.19 µM | suppresses the proliferation effect of normal human prostate stroma cells by LPA, depending on the concentration | – | inhibits the proliferation effect of normal human precursor fat cells induced by LPA depending on the concentration; also recorded: inhibited the proliferation of mouse precursor fat cells by LPA stimulation depending on the concentration | inhibits the proliferation effect of normal human synovial membrane depending on the concentration |
| COc1ccc(OC)c(CCN(CCC(=O)O)C(=O)c2ccccc2-c2ccccc2C(=O)NCc2cccnc2)c1.Cl [compound (a), 3-(N-((2-(2-((pyridin-3-ylmethylamino)carbonyl)phenyl)phenyl)carbonyl)-N-(2-(2,5-dimethoxyphenyl)ethyl)amino)propanoic acid hydrochloride] | – | suppresses the proliferation effect of normal human prostate stroma cells by LPA, depending on the concentration | suppresses the proliferation effect of normal human airway smooth muscle cells by LPA, depending on the concentration | – | inhibited the proliferation of human synovial cells by stimulation of LPA |
